Source: PubChem BioAssay AID248 (DTP/NCI, 2004)
Where “and” joins values, the source holds several entries; their conditions need not be identical. Identical values can stand only once. Toxic doses and inconclusive results are not listed. Rule as the data show it: active = T/C of 150% or more; inactive = T/C below 125%.

System: L1210 leukemia ip in BDF1 mice, survival T/C
Assay: NCI In Vivo Anticancer Drug Screen. Data for tumor model L1210 Leukemia (intraperitoneal) in B6D2F1 (BDF1) mice
Details: endpoint: mean survival time, higher = longer survival
How it was run: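 Each compound was tested against a transplantable tumor grown in mice. The endpoint was survival, with treated animals benchmarked against vehicle controls as a simple ratio.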

[1] = dose: 100.0 mg/kg/injection, schedule: Q04DX002 (ip), vehicle: Klucel (hydroxypropylcellulose) (HPC)
[2] = dose: 200.0 mg/kg/injection, schedule: Q04DX002 (ip), vehicle: Klucel (hydroxypropylcellulose) (HPC)
[3] = dose: 400.0 mg/kg/injection, schedule: Q04DX002 (ip), vehicle: Klucel (hydroxypropylcellulose) (HPC)
[4] = dose: 100.0 mg/kg/injection, schedule: Q01DX009 (ip), vehicle: Klucel (hydroxypropylcellulose) (HPC)
[5] = dose: 200.0 mg/kg/injection, schedule: Q01DX009 (ip), vehicle: Klucel (hydroxypropylcellulose) (HPC)
[6] = dose: 400.0 mg/kg/injection, schedule: Q01DX009 (ip), vehicle: Klucel (hydroxypropylcellulose) (HPC)
[7] = dose: 100.0 mg/kg/injection, schedule: Q01DX001 (ip), vehicle: carboxymethylcellulose (CMC)
[8] = dose: 200.0 mg/kg/injection, schedule: Q01DX001 (ip), vehicle: carboxymethylcellulose (CMC)
[9] = dose: 400.0 mg/kg/injection, schedule: Q01DX001 (ip), vehicle: carboxymethylcellulose (CMC)
[10] = dose: 100.0 mg/kg/injection, schedule: Q01DX001 (ip), vehicle: saline
[11] = dose: 200.0 mg/kg/injection, schedule: Q01DX001 (ip), vehicle: saline
[12] = dose: 400.0 mg/kg/injection, schedule: Q01DX001 (ip), vehicle: saline
[13] = dose: 100.0 mg/kg/injection, schedule: Q04DX003 (ip), vehicle: Klucel (hydroxypropylcellulose) (HPC)
[14] = dose: 200.0 mg/kg/injection, schedule: Q04DX003 (ip), vehicle: Klucel (hydroxypropylcellulose) (HPC)
[15] = dose: 400.0 mg/kg/injection, schedule: Q04DX003 (ip), vehicle: Klucel (hydroxypropylcellulose) (HPC)
[16] = dose: 10.0 mg/kg/injection, schedule: Q01DX001 (ip), vehicle: saline
[17] = dose: 20.0 mg/kg/injection, schedule: Q01DX001 (ip), vehicle: saline
[18] = dose: 40.0 mg/kg/injection, schedule: Q01DX001 (ip), vehicle: saline

Measured: T/C

COC(=O)C1C2CCCCC2(C)CC12SCCS2 (stereo not given)
inactive: [1] 107 % of control | [2] 107 % of control | [3] 93 % of control

Cc1ncc2c(=O)[nH]ccn12
inactive: dose: 100.0 mg/kg/injection, schedule: Q04DX003 (ip), vehicle: water 103 % of control | dose: 200.0 mg/kg/injection, schedule: Q04DX003 (ip), vehicle: water 103 % of control | dose: 400.0 mg/kg/injection, schedule: Q04DX003 (ip), vehicle: water 103 % of control

Cc1cc(=O)n2c3c(cc(C#N)cc13)OC2
inactive: [4] 90 % of control | [1] 96 % of control | [5] 98 % of control | [6] 95 % of control | [3] 89 % of control

Clc1ccc2c(NCCNC3CCCCC3)ccnc2c1
inactive: dose: 9.38 mg/kg/injection, schedule: Q01DX001 (ip), vehicle: saline 105 % of control | dose: 18.75 mg/kg/injection, schedule: Q01DX001 (ip), vehicle: saline 100 % of control | dose: 37.5 mg/kg/injection, schedule: Q01DX001 (ip), vehicle: saline 108 % of control

CC(C)(O)c1cnc(OCc2ccccc2)nc1OCc1ccccc1
inactive: [4] 98 % of control | dose: 100.0 mg/kg/injection, schedule: Q04DX003 (ip), vehicle: other 101 % of control | [5] 100 % of control | dose: 200.0 mg/kg/injection, schedule: Q04DX003 (ip), vehicle: other 106 % of control | [6] 103 % of control | dose: 400.0 mg/kg/injection, schedule: Q04DX003 (ip), vehicle: other 101 % of control

O=C(O)CC1=C(O)c2ccccc2C(=O)C1=O
inactive: dose: 100.0 mg/kg/injection, schedule: Q01DX001 (ip), vehicle: water 97 % of control | dose: 200.0 mg/kg/injection, schedule: Q01DX001 (ip), vehicle: water 103 % of control | dose: 400.0 mg/kg/injection, schedule: Q01DX001 (ip), vehicle: water 97 % of control

[Ni+2].[SH2+]C([SH2+])=Nc1ccccc1.[SH2+]C([SH2+])=Nc1ccccc1.c1ccc(C[P+](c2ccccc2)(c2ccccc2)c2ccccc2)cc1
inactive: dose: 6.0 mg/kg/injection, schedule: Q01DX009 (ip), vehicle: saline 94 % of control

Nc1nc(SCc2ccccc2)c2ncn(C3CCCC3)c2n1
inactive: [7] 95 % of control | [8] 95 % of control | [9] 92 % of control | dose: 700.0 mg/kg/injection, schedule: Q01DX015 (ip), vehicle: carboxymethylcellulose (CMC) 101 % of control | dose: 800.0 mg/kg/injection, schedule: Q01DX015 (ip), vehicle: carboxymethylcellulose (CMC) 101 % of control

COc1ccc(/C=N/NC(=O)COCC(=O)N/N=C/c2ccc(OC)c(OC)c2)cc1OC
inactive: [4] 101 % of control | [5] 95 % of control | [6] 92 % of control

Cc1c(/C=N\Nc2ccccc2)[nH]c(=O)[nH]c1=O
inactive: [10] 92 % of control | [11] 92 % of control | [12] 86 % of control

Cc1ccc(S(=O)NNc2ccccc2)cc1 (stereo not given)
inactive: [10] 93 % of control | [11] 104 % of control | [12] 93 % of control

ClCCCCCCCCCCCl
inactive: [4] 94 % of control and 97 % of control | [13] 97 % of control | [5] 94 % of control and 102 % of control | [14] 92 % of control | [6] 92 % of control | [15] 99 % of control

O=c1c(O)c(-c2ccccc2)oc2ccccc12
inactive: [7] 90 % of control | [8] 97 % of control | [9] 97 % of control

CCOC(=O)OC1C(OC)OC2COC(c3ccccc3)OC2C1O (stereo not given)
inactive: [1] 91 % of control | [2] 91 % of control | [3] 107 % of control

CCOC(=O)N(C1CCCCC1)P(=O)(OCC)OCC
inactive: dose: 12.5 mg/kg/injection, schedule: Q01DX009 (ip), vehicle: saline 96 % of control and 108 % of control | dose: 12.5 mg/kg/injection, schedule: Q04DX003 (ip), vehicle: saline 100 % of control | dose: 25.0 mg/kg/injection, schedule: Q01DX009 (ip), vehicle: saline 100 % of control and 91 % of control | dose: 25.0 mg/kg/injection, schedule: Q04DX003 (ip), vehicle: saline 107 % of control | dose: 50.0 mg/kg/injection, schedule: Q01DX009 (ip), vehicle: saline 97 % of control and 100 % of control | dose: 50.0 mg/kg/injection, schedule: Q04DX003 (ip), vehicle: saline 110 % of control | dose: 100.0 mg/kg/injection, schedule: Q01DX009 (ip), vehicle: saline 103 % of control and 91 % of control | dose: 100.0 mg/kg/injection, schedule: Q04DX003 (ip), vehicle: saline 103 % of control | dose: 200.0 mg/kg/injection, schedule: Q04DX003 (ip), vehicle: saline 100 % of control

O=C(O)C1(Nc2ccc(-c3ccc(NC4(C(=O)O)CCCC4)cc3)cc2)CCCC1
inactive: dose: 50.0 mg/kg/injection, schedule: Q01DX001 (ip), vehicle: carboxymethylcellulose (CMC) 90 % of control | [7] 90 % of control | [8] 88 % of control | [9] 88 % of control

CSc1ccc(NC(=O)Nc2cc(C)ccc2Cl)cc1
inactive: [4] 86 % of control | [5] 93 % of control | [6] 88 % of control

CC(=O)Oc1cc2c3c(c1)-c1c(ccc(OC(C)=O)c1OC(C)=O)CC3NCC2 (stereo not given)
inactive: dose: 3.13 mg/kg/injection, schedule: Q04DX003 (ip), vehicle: DMSO 93 % of control | dose: 6.25 mg/kg/injection, schedule: Q04DX003 (ip), vehicle: DMSO 93 % of control | dose: 12.5 mg/kg/injection, schedule: Q04DX003 (ip), vehicle: DMSO 93 % of control | dose: 25.0 mg/kg/injection, schedule: Q04DX003 (ip), vehicle: DMSO 98 % of control | dose: 50.0 mg/kg/injection, schedule: Q04DX003 (ip), vehicle: DMSO 87 % of control

NC1=NCC(CSS(=O)(=O)O)S1 (stereo not given)
inactive: dose: 5.0 mg/kg/injection, schedule: Q01DX009 (ip), vehicle: saline 95 % of control | [16] 101 % of control | dose: 10.0 mg/kg/injection, schedule: Q01DX009 (ip), vehicle: saline 89 % of control | dose: 10.0 mg/kg/injection, schedule: Q04DX003 (ip), vehicle: saline 96 % of control | [17] 93 % of control | dose: 20.0 mg/kg/injection, schedule: Q01DX009 (ip), vehicle: saline 106 % of control | dose: 20.0 mg/kg/injection, schedule: Q04DX003 (ip), vehicle: saline 105 % of control | dose: 29.0 mg/kg/injection, schedule: Q01DX009 (ip), vehicle: saline 90 % of control | [18] 95 % of control | dose: 40.0 mg/kg/injection, schedule: Q04DX003 (ip), vehicle: saline 97 % of control

Cc1c(C(=O)NN)sc2ccccc12
inactive: dose: 5.0 mg/kg/injection, schedule: Q01DX001 (ip), vehicle: saline 100 % of control | [16] 97 % of control | [17] 100 % of control | [18] 97 % of control | dose: 80.0 mg/kg/injection, schedule: Q01DX001 (ip), vehicle: saline 94 % of control

O=C(COc1ccc(Cl)cc1Cl)NO
inactive: [4] 104 % of control | [13] 102 % of control | [5] 109 % of control | [14] 104 % of control | [6] 101 % of control | [15] 106 % of control

O=[N+]([O-])c1cc(C(F)(F)F)cc([N+](=O)[O-])c1N/N=C/c1ccccc1Cl
inactive: dose: 100.0 mg/kg/injection, schedule: Q01DX009 (ip), vehicle: saline with Tween-80 91 % of control | dose: 200.0 mg/kg/injection, schedule: Q01DX009 (ip), vehicle: saline with Tween-80 95 % of control | dose: 400.0 mg/kg/injection, schedule: Q01DX009 (ip), vehicle: saline with Tween-80 90 % of control

Cc1ccc(/C(C#N)=C/c2cccc([N+](=O)[O-])c2)cc1
inactive: dose: 100.0 mg/kg/injection, schedule: Q04DX002 (ip), vehicle: saline with Tween-80 95 % of control | dose: 200.0 mg/kg/injection, schedule: Q04DX002 (ip), vehicle: saline with Tween-80 88 % of control | dose: 400.0 mg/kg/injection, schedule: Q04DX002 (ip), vehicle: saline with Tween-80 98 % of control

N/C(Cc1ccc(Cl)cc1)=N/O
inactive: [13] 104 % of control | [14] 102 % of control
